Assay results taken from article PMC9645260, “Small-molecule inhibitors of P-Rex guanine-nucleotide exchange factors” (Small GTPases, 2022).

What was measured:
[1] = test system: primary mouse neutrophils; assay: Neutrophil ROS production, PMA-stimulated; format: cell-based; conditions: 1 µM, 500 nM PMA
Experimental: Prex^−/− mice (Prex1^−/−Prex2^−/−) with general P-Rex deficiency were described previously and were compared to Prex^+/+ (Prex1^+/+Prex2^+/+) control mice on the same genetic background (C57Bl6/129Ola backcrossed seven times to C57Bl6). Mice were group-housed (up to 5) under specific opportunistic pathogen-free isolator conditions in Babraham’s small animal barrier facility that uses 12 h light/dark cycles with dusk and dawn settings, and were fed chow diet and water ad libitum. Mice from both sexes were used for experiments, at young-adult age (between 8 and 14 weeks), and were sex- and age-matched between genotypes within experiments. […]
Mature primary neutrophils were isolated from the bone marrow of age- and sex-matched Prex^+/+ and Prex^−/− mice freshly each day at 4°C, using Percoll^Plus (GE Healthcare) gradient, as described, using endotoxin-free media throughout. Isolated neutrophils were 70–90% pure, as assessed by KwikDiff staining of cytospins. ROS production was measured by real-time chemiluminescence assay as described, except that neutrophils were incubated with PREX-in1 before the assay. […] Real-time ROS production was recorded in a Berthold MicroLumat Plus luminometer (Berthold Technologies) at 37°C, for 2.5 min with fMLP stimulation or for 10 min with PMA stimulation. […]

Tiam1 (full-length) = molecular target: T1, Tiam1 (full-length) (Homo sapiens, UniProt Q13009); assay: Liposome-based GEF activity assay, Tiam1; format: biochemical; conditions: 10 µM, 50 nM full-length Tiam1
T1 construct: Full-length Tiam1, expressed in and purified from Sf9 cells; host or cells: Sf9 cells
T1 sequence (Q13009 whole entry): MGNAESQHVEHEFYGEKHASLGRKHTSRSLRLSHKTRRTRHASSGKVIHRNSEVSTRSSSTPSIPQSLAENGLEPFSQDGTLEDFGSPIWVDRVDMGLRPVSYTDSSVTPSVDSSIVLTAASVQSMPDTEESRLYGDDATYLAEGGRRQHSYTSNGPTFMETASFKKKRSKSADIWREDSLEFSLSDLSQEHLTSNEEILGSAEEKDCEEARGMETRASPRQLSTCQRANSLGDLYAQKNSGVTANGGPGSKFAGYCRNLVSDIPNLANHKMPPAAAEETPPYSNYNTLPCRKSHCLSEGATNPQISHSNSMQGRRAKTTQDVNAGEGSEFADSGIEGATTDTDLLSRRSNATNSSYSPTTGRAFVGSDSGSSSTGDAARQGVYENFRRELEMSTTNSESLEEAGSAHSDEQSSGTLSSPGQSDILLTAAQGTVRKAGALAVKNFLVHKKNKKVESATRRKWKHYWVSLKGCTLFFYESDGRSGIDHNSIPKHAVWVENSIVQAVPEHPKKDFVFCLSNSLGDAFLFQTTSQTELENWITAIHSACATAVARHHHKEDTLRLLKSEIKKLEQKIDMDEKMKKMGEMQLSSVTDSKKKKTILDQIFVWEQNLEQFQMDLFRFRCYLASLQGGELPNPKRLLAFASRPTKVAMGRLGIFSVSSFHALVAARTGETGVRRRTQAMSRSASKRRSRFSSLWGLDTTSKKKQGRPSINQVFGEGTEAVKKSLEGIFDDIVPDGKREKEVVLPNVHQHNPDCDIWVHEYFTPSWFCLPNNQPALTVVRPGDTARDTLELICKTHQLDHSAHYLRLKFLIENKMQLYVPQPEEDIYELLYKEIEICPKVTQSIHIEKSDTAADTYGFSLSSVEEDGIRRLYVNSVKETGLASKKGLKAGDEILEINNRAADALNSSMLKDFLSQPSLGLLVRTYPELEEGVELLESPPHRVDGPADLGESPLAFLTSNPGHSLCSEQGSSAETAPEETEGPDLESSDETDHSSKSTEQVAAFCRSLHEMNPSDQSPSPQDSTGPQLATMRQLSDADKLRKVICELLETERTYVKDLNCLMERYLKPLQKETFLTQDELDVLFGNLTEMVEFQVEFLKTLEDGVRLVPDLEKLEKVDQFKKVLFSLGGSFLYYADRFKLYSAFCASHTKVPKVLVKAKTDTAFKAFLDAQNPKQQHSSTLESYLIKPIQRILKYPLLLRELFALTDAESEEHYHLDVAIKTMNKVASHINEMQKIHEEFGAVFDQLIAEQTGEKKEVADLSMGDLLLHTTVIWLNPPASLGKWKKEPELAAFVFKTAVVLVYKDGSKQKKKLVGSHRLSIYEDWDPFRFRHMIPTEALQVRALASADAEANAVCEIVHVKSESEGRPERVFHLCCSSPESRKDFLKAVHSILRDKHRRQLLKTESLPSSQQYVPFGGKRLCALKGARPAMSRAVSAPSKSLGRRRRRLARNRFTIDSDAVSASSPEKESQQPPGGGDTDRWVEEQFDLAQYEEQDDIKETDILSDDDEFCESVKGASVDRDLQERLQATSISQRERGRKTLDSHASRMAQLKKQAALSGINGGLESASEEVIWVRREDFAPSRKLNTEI
Experimental: Full-length N-terminally EE-tagged P-Rex1, P-Rex2, the P-Rex1 DH and DHPH domains and the P-Rex2 DH domain were produced in Sf9 cells using baculoviral transduction and were purified using anti-EE beads, as previously described. Briefly, frozen pellets from 500 ml of Sf9 culture infected with P-Rex expressing high-titre baculovirus were resuspended in ice-cold lysis Sf9-cell lysis buffer 2 (1x PBS, 1% Triton X-100, 5 mM EGTA, 1 mM EDTA, 25 mM NaF, 20 mM β-glycerophosphate, 1 mM DTT, 100 µM PMSF, 10 μg/ml each of leupeptin, pepstatin A, aprotinin and antipain) for 5 min and then ultracentrifuged at 118,000 × g for 1 h at 4°C. Supernatants were incubated with pre-washed anti-EE beads for 90 min on ice with end-over-end rotation. […] Protein concentration and purity were determined by coomassie staining of SDS-PAGE gels. […]
Liposome-based GEF activity assays were carried out essentially as described, except that GEFs were incubated with inhibitor compounds prior to the assay. […] Small GTPases were isolated using anti-EE antibody-coupled Sepharose beads or glutathione Sepharose beads, as appropriate, by incubation on ice for 90 min with end-over-end rotation, four washes in ice-cold wash buffer and resuspension of beads in Ultima Gold scintillation fluid (Perkin Elmer). ^35S-GTPγS incorporation was assessed by scintillation counting (Packard 1600TR, Liquid Scintillation Analyser).

Compound: COc1ccc(-c2[nH]nc3c2C(c2ccc(-c4ccc(Cl)cc4)o2)C(C#N)=C(N)O3)cc1 (centres unmarked) [PREX-in1, 6-amino-4-[5-(4-chlorophenyl)-2-furyl]-3-(4-methoxyphenyl)-2,4-dihydropyrano[2,3-c]pyrazole-5-carbonitrile]
- effect on PMA-induced ROS response [1]: unaffected
- effect on GEF activity of Tiam1 (Tiam1 (full-length)): none of the other GEFs were affected
